Experimental data reported in ChEMBL document CHEMBL1128102, “1,5-Benzodiazepines as CCK-B antagonists. Effect of halogen substitution at the benzo-fused ring on potency and selectivity” (Bioorg Med Chem Lett, 1995).

Tests used:
[1] = target: T1, Cholecystokinin receptor type A (Rattus norvegicus, UniProt P30551); test: Binding affinity was measured by its ability to displace [3H]CCK-8S from CCK-A receptor in rat pancreas
T1 sequence (P30551 whole entry): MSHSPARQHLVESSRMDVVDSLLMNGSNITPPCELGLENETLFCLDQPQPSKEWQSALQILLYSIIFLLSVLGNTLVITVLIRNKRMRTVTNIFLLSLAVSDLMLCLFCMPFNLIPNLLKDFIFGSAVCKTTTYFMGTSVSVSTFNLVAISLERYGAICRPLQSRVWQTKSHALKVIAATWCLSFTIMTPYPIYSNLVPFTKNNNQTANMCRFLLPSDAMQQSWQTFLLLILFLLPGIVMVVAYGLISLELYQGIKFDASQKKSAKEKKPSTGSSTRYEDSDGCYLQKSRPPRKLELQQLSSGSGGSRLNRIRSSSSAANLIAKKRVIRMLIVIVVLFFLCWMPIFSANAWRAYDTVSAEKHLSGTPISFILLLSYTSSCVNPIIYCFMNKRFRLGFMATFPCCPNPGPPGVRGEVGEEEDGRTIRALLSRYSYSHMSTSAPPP

[2] = target: Cholecystokinin receptor (Homo sapiens) (UniProt P32239+P32238); test: Selectivity was determined as the ratio for binding affinities of CCK-A receptor to CCK-B receptor; assay type: protein assay
Cholecystokinin receptor (Homo sapiens), sequence (P32238 whole entry, looked up): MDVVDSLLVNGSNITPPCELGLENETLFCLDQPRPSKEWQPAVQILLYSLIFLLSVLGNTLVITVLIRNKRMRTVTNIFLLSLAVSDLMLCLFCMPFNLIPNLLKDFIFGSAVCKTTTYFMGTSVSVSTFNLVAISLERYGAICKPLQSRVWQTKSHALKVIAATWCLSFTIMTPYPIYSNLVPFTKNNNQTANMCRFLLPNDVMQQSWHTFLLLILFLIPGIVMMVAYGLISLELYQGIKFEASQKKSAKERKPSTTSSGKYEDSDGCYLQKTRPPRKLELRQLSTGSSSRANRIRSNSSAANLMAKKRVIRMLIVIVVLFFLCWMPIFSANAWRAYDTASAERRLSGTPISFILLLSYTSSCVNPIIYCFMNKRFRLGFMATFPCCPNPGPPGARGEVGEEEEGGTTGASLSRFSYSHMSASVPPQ
Cholecystokinin receptor (Homo sapiens), sequence (P32239 whole entry, looked up): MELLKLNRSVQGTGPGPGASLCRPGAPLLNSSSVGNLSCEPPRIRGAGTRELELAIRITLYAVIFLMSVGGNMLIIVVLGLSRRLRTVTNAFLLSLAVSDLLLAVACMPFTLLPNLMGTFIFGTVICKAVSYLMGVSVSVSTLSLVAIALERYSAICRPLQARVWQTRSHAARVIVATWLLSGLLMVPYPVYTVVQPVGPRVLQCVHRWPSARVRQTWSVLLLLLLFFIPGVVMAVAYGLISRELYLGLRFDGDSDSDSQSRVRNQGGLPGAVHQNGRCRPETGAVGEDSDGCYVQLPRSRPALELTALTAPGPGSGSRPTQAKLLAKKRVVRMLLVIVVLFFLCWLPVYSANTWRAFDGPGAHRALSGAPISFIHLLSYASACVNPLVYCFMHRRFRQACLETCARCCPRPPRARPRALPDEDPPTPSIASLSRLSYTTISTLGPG

Row | SMILES | Ki [1] [nM] | Ratio [2]
1 | CC(C)CCN1C(=O)C(NC(=O)Nc2ccccc2)C(=O)N(c2ccccc2)c2cc(F)ccc21 (stereo not given) | 4.57 | 49
2 | CC(C)CCN1C(=O)C(NC(=O)Nc2ccccc2)C(=O)N(c2ccccc2)c2ccc(Cl)cc21 (stereo not given) | 41.7 | 23
3 | CC(C)CCN1C(=O)C(NC(=O)Nc2ccccc2)C(=O)N(c2ccccc2)c2cc(Cl)ccc21 (stereo not given) | 4.9 | 195
4 | CC(C)CCN1C(=O)C(NC(=O)Nc2ccccc2)C(=O)N(c2ccccc2)c2ccc(F)cc21 (stereo not given) | 8.91 | > 110
5 | CC(C)CCN1C(=O)C(NC(=O)Nc2ccccc2)C(=O)N(c2ccccc2)c2cc(Cl)c(Cl)cc21 (stereo not given) | 9.77 | 162
